How the values were obtained:
PKA = details: cited from earlier work
Description: The PKA C subunit is a classic example for a Ser/Thr kinase with serine specificity and this preference is highly conserved among different species. PKA can select target substrates according to the consensus sequence RRXS*/T*Y, where X is any residue, and Y is a hydrophobic residue.

PKA Cα F187I = biological target: T1, PKA Cα F187I (Homo sapiens, UniProt P17612, F188I); test: Coupled spectrophotometric kinase assay; assay type: biochemical; details: mean ± SD of at least three independent measurements; for Km / kcat: 20 nM kinase with S-Kemptide, 10 nM with T-Kemptide, SD; for kcat/KM: catalytic efficiency
T1 construct: made in house
Description: (§1) To determine the Michaelis-Menten constant (KM) and the turnover number (kcat) of purified PKA Cα wt and the DFG+1 mutants for the peptide substrate Kemptide, a coupled spectrophotometric assay was used. As we were interested in the substrate specificity of the kinase, we tested two different peptide substrates: S-Kemptide (LRRASLG) as a serine substrate and T-Kemptide (LRRATLG) as a threonine substrate (GeneCust, Boynes, France). 50 nM PKA Cα wt were used when measured with T-Kemptide and 20 nM wt, F187I, or F187T when measured with S-Kemptide. In all other assays, the final kinase concentration was 10 nM of the respective kinase. All kinases were measured with a minimum of three independent replicates. The calculated turnover was plotted against the […] and analyzed with GraphPad Prism 8.0 (GraphPad Software, San Diego, CA, USA).

PKA Cα F187T = biological target: T2, PKA Cα F187T (Homo sapiens, UniProt P17612, F188T); test: Coupled spectrophotometric kinase assay; assay type: biochemical; details: mean ± SD of at least three independent measurements; for Km / kcat: 20 nM kinase with S-Kemptide, 10 nM with T-Kemptide, SD; for kcat/KM: catalytic efficiency
T2 construct: made in house
Description: as §1

PKA Cα wt = biological target: T3, PKA Cα wt (Homo sapiens, UniProt P17612); test: Coupled spectrophotometric kinase assay; assay type: biochemical; details: for Km / kcat: 20 nM kinase with S-Kemptide, 50 nM with T-Kemptide, SD; for Km / kcat / kcat/KM: mean ± SD of at least three independent measurements; for kcat/KM: catalytic efficiency
T3 construct: made in house
Description: as §1

Substance | higher catalytic efficiency than Kemptide (PKA) | Km (PKA Cα F187I) [µM] | kcat (PKA Cα F187I) [s⁻¹] | kcat/KM (PKA Cα F187I) | Km (PKA Cα F187T) [µM] | kcat (PKA Cα F187T) [s⁻¹] | kcat/KM (PKA Cα F187T) | Km (PKA Cα wt) [µM] | kcat (PKA Cα wt) [s⁻¹] | higher catalytic efficiency (kcat/KM) for the serine substrate peptide compared to T-Kemptide (PKA Cα wt; S-Kemptide versus T-Kemptide) | kcat/KM (PKA Cα wt)
GRTGRRNSI [peptide derived from PKI with a serine introduced at the P0 position] | more than 70 fold |  |  |  |  |  |  |  |  |  | 
LRRASLG [S-Kemptide, heptapeptide (LRRASLG), canonical serine substrate of PKA derived from the porcine liver pyruvate kinase] |  | 92.2 ± 3.8 | 25.4 ± 5.8 | 2.8 ± 0.8 ×10^5 M^−1s^−1 | 23 ± 3.1 | 15.7 ± 0.3 | 6.9 ± 1.2 ×10^5 M^−1s^−1 | 19.8 ± 3.9 | 19.8 ± 1.0 | more than 100 fold | 10.3 ± 1.7 ×10^5 M^−1s^−1
LRRATLG [T-Kemptide, LRRATLG, threonine peptide substrate] |  | 19.8 ± 3.3 | 43.0 ± 4.7 | 22.1 ± 4.5 ×10^5 M^−1s^−1 | 25 ± 3.4 | 37.1 ± 4.5 | 14.9 ± 0.6 ×10^5 M^−1s^−1 | 861 ± 184 | 7.5 ± 0.8 |  | 0.09 ± 0.02 ×10^5 M^−1s^−1

Source: PMC7361990, “Molecular Basis for Ser/Thr Specificity in PKA Signaling” (Cells, 2020)
